# Measured values: PubChem BioAssay (NCI)
#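 96-well plates; 48 h exposure; 5 concentrations. Endpoints by linear interpolation between flanking doses. Not reached: highest tested concentration assigned. The concentration for 50% growth inhibition is given as GI50. The concentration for full growth arrest is given as TGI.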
# Tests used:
# Test in all cases: NCI anticancer screen, dose series, 48 h
# UO-31 renal = system: UO-31 renal
# NCI-H226 lung = system: NCI-H226 lung
# KM12 colon = system: KM12 colon
# SK-MEL-5 melanoma = system: SK-MEL-5 melanoma
# SF-539 CNS = system: SF-539 CNS
# U251 CNS = system: U251 CNS
# HCT-15 colon = system: HCT-15 colon
# HCT-116 colon = system: HCT-116 colon
# IGROV1 ovarian = system: IGROV1 ovarian
# MDA-MB-435 = system: MDA-MB-435
# A498 renal = system: A498 renal
# RPMI-8226 leukemia = system: RPMI-8226 leukemia
# LOX IMVI melanoma = system: LOX IMVI melanoma
# OVCAR-8 ovarian = system: OVCAR-8 ovarian
# M14 melanoma = system: M14 melanoma
# HT29 colon = system: HT29 colon
# SN12C renal = system: SN12C renal
# MOLT-4 leukemia = system: MOLT-4 leukemia
# A549 NSCLC = system: A549 NSCLC
# ACHN renal = system: ACHN renal
# T-47D breast = system: T-47D breast
# BT-549 breast = system: BT-549 breast
# SK-MEL-2 melanoma = system: SK-MEL-2 melanoma
# HOP-92 NSCLC = system: HOP-92 NSCLC
# OVCAR-4 ovarian = system: OVCAR-4 ovarian
# 786-0 renal = system: 786-0 renal
# CCRF-CEM leukemia = system: CCRF-CEM leukemia
# CAKI-1 renal = system: CAKI-1 renal
# OVCAR-3 ovarian = system: OVCAR-3 ovarian
# EKVX NSCLC = system: EKVX NSCLC
# NCI-H522 lung = system: NCI-H522 lung
# SK-MEL-28 melanoma = system: SK-MEL-28 melanoma
# HOP-62 NSCLC = system: HOP-62 NSCLC
# SF-295 CNS = system: SF-295 CNS
# HS 578T breast = system: HS 578T breast
# SW-620 colon = system: SW-620 colon
# SR leukemia = system: SR leukemia
# SNB-75 CNS = system: SNB-75 CNS
# SF-268 CNS = system: SF-268 CNS
# COLO 205 colon = system: COLO 205 colon
# MALME-3M melanoma = system: MALME-3M melanoma
# SNB-19 CNS = system: SNB-19 CNS
# MDA-MB-231 breast = system: MDA-MB-231 breast
# SK-OV-3 ovarian = system: SK-OV-3 ovarian
# DU-145 prostate = system: DU-145 prostate
# TK-10 renal = system: TK-10 renal
# NCI-H460 lung = system: NCI-H460 lung
# UACC-257 melanoma = system: UACC-257 melanoma
# HL-60(TB) leukemia = system: HL-60(TB) leukemia
# K-562 leukemia = system: K-562 leukemia
# RXF 393 renal = system: RXF 393 renal
# NCI-H23 lung = system: NCI-H23 lung
smiles,measurement,setting,value
CCOC(=O)c1c2c(n(Cc3ccc(Cl)cc3Cl)c1C)-c1nc[nH]c1C(=O)C2=O,GI50,UO-31 renal,12.4 µM
same,TGI,UO-31 renal,49.5 µM
same,GI50,NCI-H226 lung,14.2 µM
same,TGI,NCI-H226 lung,31.5 µM
same,GI50,KM12 colon,5.87 µM
same,TGI,KM12 colon,19.4 µM
same,GI50,SK-MEL-5 melanoma,13 µM
same,TGI,SK-MEL-5 melanoma,25.7 µM
same,GI50,SF-539 CNS,4.4 µM
same,TGI,SF-539 CNS,16.4 µM
same,GI50,U251 CNS,7.01 µM
same,TGI,U251 CNS,19.5 µM
same,GI50,HCT-15 colon,11 µM
same,TGI,HCT-15 colon,23 µM
same,GI50,HCT-116 colon,2.16 µM
same,TGI,HCT-116 colon,5.66 µM
same,GI50,IGROV1 ovarian,11.2 µM
same,TGI,IGROV1 ovarian,24 µM
same,GI50,MDA-MB-435,13.5 µM
same,TGI,MDA-MB-435,30.1 µM
same,GI50,A498 renal,19.7 µM
same,TGI,A498 renal,36.1 µM
same,GI50,RPMI-8226 leukemia,2.5 µM
same,TGI,RPMI-8226 leukemia,6.03 µM
same,GI50,LOX IMVI melanoma,3.54 µM
same,TGI,LOX IMVI melanoma,13.7 µM
same,GI50,OVCAR-8 ovarian,10.5 µM
same,TGI,OVCAR-8 ovarian,22.2 µM
same,GI50,M14 melanoma,14.7 µM
same,TGI,M14 melanoma,27.8 µM
same,GI50,HT29 colon,15.5 µM
same,TGI,HT29 colon,28.8 µM
same,GI50,SN12C renal,3.02 µM
same,TGI,SN12C renal,13.1 µM
same,GI50,MOLT-4 leukemia,1.8 µM
same,TGI,MOLT-4 leukemia,3.97 µM
same,GI50,A549 NSCLC,10.9 µM
same,TGI,A549 NSCLC,23.1 µM
same,GI50,ACHN renal,4.45 µM
same,TGI,ACHN renal,16.1 µM
same,GI50,T-47D breast,1.65 µM
same,TGI,T-47D breast,5.03 µM
same,GI50,BT-549 breast,15.5 µM
same,TGI,BT-549 breast,31.8 µM
same,GI50,SK-MEL-2 melanoma,19.5 µM
same,TGI,SK-MEL-2 melanoma,41.2 µM
same,GI50,HOP-92 NSCLC,1.28 µM
same,TGI,HOP-92 NSCLC,2.75 µM
same,GI50,OVCAR-4 ovarian,6.58 µM
same,TGI,OVCAR-4 ovarian,19.3 µM
same,GI50,786-0 renal,3.37 µM
same,TGI,786-0 renal,11.3 µM
same,GI50,CCRF-CEM leukemia,0.651 µM
same,TGI,CCRF-CEM leukemia,2.29 µM
same,GI50,CAKI-1 renal,13.4 µM
same,TGI,CAKI-1 renal,31.8 µM
same,GI50,OVCAR-3 ovarian,2.86 µM
same,TGI,OVCAR-3 ovarian,10.6 µM
same,GI50,EKVX NSCLC,13 µM
same,TGI,EKVX NSCLC,27.4 µM
same,GI50,NCI-H522 lung,10.3 µM
same,TGI,NCI-H522 lung,23.1 µM
same,GI50,SK-MEL-28 melanoma,15.6 µM
same,TGI,SK-MEL-28 melanoma,28.9 µM
same,GI50,HOP-62 NSCLC,16.4 µM
same,TGI,HOP-62 NSCLC,32.6 µM
same,GI50,SF-295 CNS,20.5 µM
same,TGI,SF-295 CNS,92.2 µM
same,GI50,HS 578T breast,23.1 µM
same,TGI,HS 578T breast,74.5 µM
same,GI50,SW-620 colon,6.19 µM
same,TGI,SW-620 colon,18.2 µM
same,GI50,SR leukemia,1.21 µM
same,TGI,SR leukemia,2.79 µM
same,GI50,SNB-75 CNS,1.99 µM
same,TGI,SNB-75 CNS,9.62 µM
same,GI50,SF-268 CNS,7.89 µM
same,TGI,SF-268 CNS,20.4 µM
same,GI50,COLO 205 colon,17.4 µM
same,TGI,COLO 205 colon,32.1 µM
same,GI50,MALME-3M melanoma,11.6 µM
same,TGI,MALME-3M melanoma,27.4 µM
same,GI50,SNB-19 CNS,12.6 µM
same,TGI,SNB-19 CNS,26.2 µM
same,GI50,MDA-MB-231 breast,2.24 µM
same,TGI,MDA-MB-231 breast,5.04 µM
same,GI50,SK-OV-3 ovarian,19.9 µM
same,TGI,SK-OV-3 ovarian,34.2 µM
same,GI50,DU-145 prostate,11.8 µM
same,TGI,DU-145 prostate,24.1 µM
same,GI50,TK-10 renal,20.1 µM
same,TGI,TK-10 renal,41.2 µM
same,GI50,NCI-H460 lung,4.79 µM
same,TGI,NCI-H460 lung,15.9 µM
same,GI50,UACC-257 melanoma,14.2 µM
same,TGI,UACC-257 melanoma,27.3 µM
same,GI50,HL-60(TB) leukemia,2.18 µM
same,TGI,HL-60(TB) leukemia,5.14 µM
same,GI50,K-562 leukemia,3.21 µM
same,TGI,K-562 leukemia,12.3 µM
same,GI50,RXF 393 renal,10.2 µM
same,TGI,RXF 393 renal,22.7 µM
C=CC1CN2CCC1CC2C(O)c1ccnc2ccc(OC)cc12 (stereo not given),GI50,A498 renal,> 100 µM
same,TGI,A498 renal,> 100 µM
same,GI50,RPMI-8226 leukemia,53 µM
same,TGI,RPMI-8226 leukemia,> 100 µM
same,GI50,NCI-H23 lung,> 100 µM
same,TGI,NCI-H23 lung,> 100 µM
same,GI50,MALME-3M melanoma,> 100 µM
same,TGI,MALME-3M melanoma,> 100 µM
